{"source": "paper PMC4885601", "about": "(Journal of Medicinal Chemistry, 2016)", "key": {"mouse [1]": {"test_system": "mouse", "assay": "In vivo warm water tail withdrawal", "conditions": "ip, up to 10 mg/kg"}, "mouse [2]": {"test_system": "mouse", "conditions": "WWTW assay; cited from earlier work"}, "κ-opioid receptor (KOR)": {"target": "κ-opioid receptor (KOR) (Homo sapiens, UniProt P41145)", "sequence (P41145 whole entry)": "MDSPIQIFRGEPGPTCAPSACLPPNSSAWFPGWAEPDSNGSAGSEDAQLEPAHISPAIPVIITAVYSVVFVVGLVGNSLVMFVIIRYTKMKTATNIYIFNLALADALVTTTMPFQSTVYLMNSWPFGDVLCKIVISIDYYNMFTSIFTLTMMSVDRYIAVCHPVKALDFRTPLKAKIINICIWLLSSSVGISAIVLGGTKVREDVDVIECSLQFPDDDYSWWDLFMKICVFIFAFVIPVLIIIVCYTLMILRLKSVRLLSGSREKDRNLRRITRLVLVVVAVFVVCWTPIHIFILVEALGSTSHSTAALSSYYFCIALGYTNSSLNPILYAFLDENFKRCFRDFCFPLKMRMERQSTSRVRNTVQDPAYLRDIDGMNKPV", "assay": "Stimulation of [35S]GTPγS binding at KOR", "assay_type": "biochemical", "conditions": "percent maximal stimulation relative to U69,593 at 10 μM"}, "δ-opioid receptor (DOR) [3]": {"target": "T1, δ-opioid receptor (DOR) (Rattus norvegicus, UniProt P33533)", "T1 sequence (P33533 whole entry)": "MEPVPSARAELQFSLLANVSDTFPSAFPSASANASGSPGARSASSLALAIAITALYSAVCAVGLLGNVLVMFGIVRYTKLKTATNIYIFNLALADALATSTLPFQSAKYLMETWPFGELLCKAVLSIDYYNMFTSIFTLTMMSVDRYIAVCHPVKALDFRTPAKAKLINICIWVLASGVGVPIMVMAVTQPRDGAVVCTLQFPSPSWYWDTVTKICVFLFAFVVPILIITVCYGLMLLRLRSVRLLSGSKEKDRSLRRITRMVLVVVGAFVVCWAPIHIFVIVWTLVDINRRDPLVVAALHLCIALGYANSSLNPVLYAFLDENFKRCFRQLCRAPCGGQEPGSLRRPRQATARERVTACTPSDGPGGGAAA", "conditions": "cited from earlier work"}, "δ-opioid receptor (DOR) [4]": {"target": "T1, δ-opioid receptor (DOR)", "assay": "Stimulation of [35S]GTPγS binding at DOR", "assay_type": "biochemical", "conditions": "percent maximal stimulation relative to DPDPE at 10 μM"}}, "note": "Where two headings read alike, the source gives them in different places."}
{"compound": "Cc1cc(O)cc(C)c1C[C@H](N)C(=O)N[C@@H]1CCN(C(=O)C2CC2)c2ccc(Cc3ccccc3)cc21", "note": "[4f, (S)-2-Amino-N-((R)-6-benzyl-1-(cyclopropanecarbonyl)-1,2,3,4-tetrahydroquinolin-4-yl)-3-(4-hydroxy-2,6-dimethylphenyl)propanamide]", "values": [{"measurement": "antinociception in the WWTW assay", "setting": "mouse [1]", "result": "partial antinociception"}]}
{"compound": "CC(=O)N1CC[C@@H](NC(=O)[C@@H](N)Cc2c(C)cc(O)cc2C)c2cc(Cc3ccc4ccccc4c3)ccc21", "note": "[15b, (S)-N-((R)-1-Acetyl-6-(naphthalen-2-ylmethyl)-1,2,3,4-tetrahydroquinolin-4-yl)-2-amino-3-(4-hydroxy-2,6-dimethylphenyl)propanamide]", "values": [{"measurement": "duration of in vivo antinociception", "setting": "mouse [2]", "result": "greater than 3 h"}]}
{"compound": "Cc1cc(O)cc(C)c1C[C@H](N)C(=O)N[C@@H]1CCN(C(=O)C2CCC2)c2ccc(Cc3ccccc3)cc21", "note": "[4g, (S)-2-Amino-N-((R)-6-benzyl-1-(cyclobutanecarbonyl)-1,2,3,4-tetrahydroquinolin-4-yl)-3-(4-hydroxy-2,6-dimethylphenyl)propanamide]", "values": [{"measurement": "% stimulation KOR", "setting": "κ-opioid receptor (KOR)", "result": "no efficacy"}]}
{"compound": "CC(=O)N1CC[C@@H](NC(=O)[C@@H](N)Cc2c(C)cc(O)cc2C)c2cc(Cc3ccccc3)ccc21", "note": "[4b, (S)-N-((R)-1-Acetyl-6-benzyl-1,2,3,4-tetrahydroquinolin-4-yl)-2-amino-3-(4-hydroxy-2,6-dimethylphenyl)propanamide]", "values": [{"measurement": "% stimulation DOR", "setting": "δ-opioid receptor (DOR) [3]", "result": 26, "unit": "%"}]}
{"compound": "COC(=O)N1CC[C@@H](NC(=O)[C@@H](N)Cc2c(C)cc(O)cc2C)c2cc(Cc3ccccc3)ccc21", "note": "[4h, Methyl (R)-4-((S)-2-Amino-3-(4-hydroxy-2,6-dimethylphenyl)propanamido)-6-benzyl-3,4-dihydroquinoline-1(2H)-carboxylate]", "values": [{"measurement": "antinociception in the WWTW assay", "setting": "mouse [1]", "result": "full in vivo antinociception"}]}
{"compound": "Cc1cc(O)cc(C)c1C[C@H](N)C(=O)N[C@@H]1CCN(C(=O)c2ccccc2)c2ccc(Cc3ccccc3)cc21", "note": "[4j, (S)-2-Amino-N-((R)-1-benzoyl-6-benzyl-1,2,3,4-tetrahydroquinolin-4-yl)-3-(4-hydroxy-2,6-dimethylphenyl)propanamide]", "values": [{"measurement": "% stimulation DOR", "setting": "δ-opioid receptor (DOR) [4]", "result": "no stimulation"}]}
